From patent publication US10093713B2, “GIP-GLP-1 dual agonist compounds and methods” (priority 2013, dated 2018)
Like-named read-outs stand apart in the source and are kept apart here. *1 amine or outer side, *2 acyl side, *3 side chain or, on linkers, in order; H or OH if unused. Where a SMILES comes first, the peptide text is derived from it. Side-chain parts run from the residue outwards. [ ]: non-standard residue; d: D form. The star is where a group is joined. C18 diacid = O=C(O)CCCCCCCCCCCCCCCCC(=O)*; γGlu = O=C(O)[C@H](CCC(=O)[*:2])N[*:1]; AEEA = NCCOCCOCC(=O)O; Aib = CC(C)(N)C(=O)O

What was measured:
human GIP R = biological target: T1, human GIP R (Homo sapiens, UniProt P48546); experiment: Human GIP receptor (GIP R) activity assay, cAMP induction (AlphaScreen) in HEK293 cells; format: cell-based; details: read-out: hGIP-R cAMP EC50 average value
T1 construct: expressed in transfected cells
T1 sequence (P48546 22-466): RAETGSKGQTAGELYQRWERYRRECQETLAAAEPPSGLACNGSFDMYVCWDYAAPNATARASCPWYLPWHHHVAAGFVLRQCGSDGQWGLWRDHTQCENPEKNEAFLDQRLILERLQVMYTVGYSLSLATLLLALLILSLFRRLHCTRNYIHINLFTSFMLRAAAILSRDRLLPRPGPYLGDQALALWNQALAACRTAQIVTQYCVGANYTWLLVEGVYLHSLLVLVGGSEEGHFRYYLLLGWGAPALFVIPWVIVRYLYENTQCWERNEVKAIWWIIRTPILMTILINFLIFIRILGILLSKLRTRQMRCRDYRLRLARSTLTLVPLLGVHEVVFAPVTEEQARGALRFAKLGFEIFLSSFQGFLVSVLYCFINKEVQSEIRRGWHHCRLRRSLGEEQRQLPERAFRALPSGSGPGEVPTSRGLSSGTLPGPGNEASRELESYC
Description: (§1) Human GIP Receptor (GIP R) and GLP-1 Receptor (GLP-1 R) Activity Assay
(§2) In vitro effects of peptide conjugates of the invention were assessed by measuring the induction of cAMP following stimulation of the respective receptor by GIP, GLP1 or analogues of these, as outlined in the invention, using the AlphaSceen® cAMP kit from Perkin-Elmer according to instructions. Briefly, HEK293 cells expressing the human GIP R or GLP-1 R (stable cell lines generated through transfection of the cDNA for human GIP R or GLP-1 and selection of stable clones) were seeded at 30,000 cells/well in 96-well microtiter plates coated with 0.01% poly-L-lysine, and grown for 1 day in culture in 200 μl growth medium (DMEM, 10% FCS, Penicillin (100 IU/ml), Streptomycin (100 μg/ml)). On the day of analysis, growth medium was removed and the cells were washed once with […] Tyrode's buffer (Tyrode's Salts (9.6 g/l), 10 mM HEPES, pH 7.4). […] The Assay buffer was removed and cells are lysed in 80 μl Lysis buffer (0.1% w/v BSA, 5 mM HEPES, 0.3% v/v Tween-20) per well. From each well 10 μl lysed cells was transferred to a 384-well plate and mixed with 15 μl bead-mix (1 Unit/15 μl anti-cAMP Acceptor Beads, 1 Unit/15 μl Donor Beads, and 1 Unit/15 μl Biotinylated cAMP in Assay Buffer). The plates were mixed and incubated in the dark for an hour at room temperature before measuring using an Envision™ plate reader (Perkin-Elmer).
(§3) The resulting cAMP curves were plotted as absolute cAMP concentrations (nM) over log (test compound concentration) and analyzed using the curve fitting program XLfit.
(§4) Parameters calculated to describe both the potency as well as the agonistic activity of each test compound on the receptors were:
(§5) EC50, a concentration resulting in a half-maximal elevation of cAMP levels, reflecting the potency of the test compound.

human GLP-1 R = biological target: T2, human GLP-1 R (Homo sapiens, UniProt P43220); experiment: Human GLP-1 receptor (GLP-1 R) activity assay, cAMP induction (AlphaScreen) in HEK293 cells; format: cell-based
T2 construct: expressed in transfected cells
T2 sequence (P43220 24-463): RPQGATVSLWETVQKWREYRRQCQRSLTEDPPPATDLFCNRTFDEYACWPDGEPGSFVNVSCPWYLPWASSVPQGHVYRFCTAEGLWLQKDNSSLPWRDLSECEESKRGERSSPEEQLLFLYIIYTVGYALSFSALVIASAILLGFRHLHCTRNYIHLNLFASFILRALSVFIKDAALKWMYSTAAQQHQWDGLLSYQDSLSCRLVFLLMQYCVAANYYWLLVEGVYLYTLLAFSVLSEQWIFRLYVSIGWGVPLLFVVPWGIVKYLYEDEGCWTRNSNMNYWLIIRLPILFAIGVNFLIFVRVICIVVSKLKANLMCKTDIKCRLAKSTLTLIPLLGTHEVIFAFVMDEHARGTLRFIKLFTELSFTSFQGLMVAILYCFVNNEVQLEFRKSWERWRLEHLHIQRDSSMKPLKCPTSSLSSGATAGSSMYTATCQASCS
Description: as §1, §2, §3, §4, §5

[1] = Table 2, HEK293 cells expressing human GIP R
[2] = Table 2a, secondary assay study
[3] = Table 3, most comprehensive data
[4] = Table 2, HEK293 cells expressing human GLP-1 R, read-out: hGLP1-R cAMP EC50 average value
[5] = Table 2a, secondary assay study, read-out: hGLP1-R cAMP EC50 average value
[6] = Table 3, most comprehensive data, read-out: hGLP-1-R cAMP EC50 average value

Compound	EC50 (human GIP R; [1]) [pM]	EC50 (human GIP R; [2]) [pM]	EC50 (human GIP R; [3]) [pM]	EC50 (human GLP-1 R; [4]) [nM]	EC50 (human GLP-1 R; [5]) [nM]	EC50 (human GLP-1 R; [6]) [nM]
CC[C@H](C)[C@H](NC(=O)[C@H](CO)NC(=O)[C@H](Cc1ccc(O)cc1)NC(=O)[C@H](CC(=O)O)NC(=O)[C@H](CO)NC(=O)[C@@H](NC(=O)[C@H](Cc1ccccc1)NC(=O)[C@@H](NC(=O)CNC(=O)[C@H](CCC(=O)O)NC(=O)C(C)(C)NC(=O)[C@@H](N)Cc1ccc(O)cc1)[C@@H](C)O)[C@@H](C)O)C(=O)NC(C)(C)C(=O)N[C@@H](CC(C)C)C(=O)N[C@@H](CC(=O)O)C(=O)N[C@@H](CCCCN)C(=O)N[C@@H](CCCCNC(=O)COCCOCCNC(=O)COCCOCCNC(=O)CC[C@H](NC(=O)CCCCCCCCCCCCCCCCC(=O)O)C(=O)O)C(=O)N[C@@H](C)C(=O)N[C@@H](CCC(N)=O)C(=O)N[C@@H](CCCNC(=N)N)C(=O)N[C@@H](C)C(=O)N[C@@H](Cc1ccccc1)C(=O)N[C@H](C(=O)N[C@@H](CCC(=O)O)C(=O)N[C@@H](Cc1c[nH]c2ccccc12)C(=O)N[C@@H](CC(C)C)C(=O)N[C@@H](CC(C)C)C(=O)N[C@@H](C)C(=O)N[C@@H](CCC(N)=O)C(=O)NCC(=O)N1CCC[C@H]1C(=O)N[C@@H](CO)C(=O)N[C@@H](CO)C(=O)NCC(=O)N[C@@H](C)C(=O)N1CCC[C@H]1C(=O)N1CCC[C@H]1C(=O)N1CCC[C@H]1C(=O)N[C@@H](CO)C(N)=O)C(C)C [Compound 11] (H-Y[Aib]EGTFTSDYSI[Aib]LDKK([AEEA-AEEA-γGlu-C18 diacid])AQRAFVEWLLAQGPSSGAPPPS-NH2)	4.7	5	5	0.013	0.013	–
CC[C@H](C)[C@H](NC(=O)[C@H](CO)NC(=O)[C@H](Cc1ccc(O)cc1)NC(=O)[C@H](CC(=O)O)NC(=O)[C@H](CO)NC(=O)[C@@H](NC(=O)[C@H](Cc1ccccc1)NC(=O)[C@@H](NC(=O)CNC(=O)[C@H](CCC(=O)O)NC(=O)C(C)(C)NC(=O)[C@@H](N)Cc1ccc(O)cc1)[C@@H](C)O)[C@@H](C)O)C(=O)N[C@@H](Cc1ccc(O)cc1)C(=O)N[C@@H](CC(C)C)C(=O)N[C@@H](CC(=O)O)C(=O)N[C@@H](CCCCN)C(=O)N[C@@H](CCCCNC(=O)COCCOCCNC(=O)COCCOCCNC(=O)CC[C@H](NC(=O)CCCCCCCCCCCCCCCCC(=O)O)C(=O)O)C(=O)N[C@@H](C)C(=O)N[C@@H](CCC(N)=O)C(=O)N[C@@H](CCCNC(=N)N)C(=O)N[C@@H](C)C(=O)N[C@@H](Cc1ccccc1)C(=O)N[C@H](C(=O)N[C@@H](CC(N)=O)C(=O)N[C@@H](Cc1c[nH]c2ccccc12)C(=O)N[C@@H](CC(C)C)C(=O)N[C@@H](CC(C)C)C(=O)N[C@@H](C)C(=O)NC(C)(C)C(=O)N[C@@H](CCCCN)C(N)=O)C(C)C [Compound 12] (H-Y[Aib]EGTFTSDYSIYLDKK([AEEA-AEEA-γGlu-C18 diacid])AQRAFVNWLLA[Aib]K-NH2)	11	12	–	0.016	0.017	–
CC[C@H](C)[C@H](NC(=O)[C@H](Cc1ccccc1)NC(=O)[C@H](CCC(=O)O)NC(=O)[C@H](CCCCN)NC(=O)[C@H](C)NC(=O)[C@H](C)NC(=O)[C@H](CCCCNC(=O)COCCOCCNC(=O)COCCOCCNC(=O)CC[C@H](NC(=O)CCCCCCCCCCCCCCCCC(=O)O)C(=O)O)NC(=O)[C@H](CCC(=O)O)NC(=O)[C@H](CC(=O)O)NC(=O)[C@H](CC(C)C)NC(=O)[C@H](Cc1ccc(O)cc1)NC(=O)[C@@H](NC(=O)[C@H](CO)NC(=O)[C@H](Cc1ccc(O)cc1)NC(=O)[C@H](CC(=O)O)NC(=O)[C@H](CO)NC(=O)[C@@H](NC(=O)[C@H](Cc1ccccc1)NC(=O)[C@@H](NC(=O)CNC(=O)[C@H](CCC(=O)O)NC(=O)C(C)(C)NC(=O)[C@@H](N)Cc1ccc(O)cc1)[C@@H](C)O)[C@@H](C)O)[C@@H](C)CC)C(=O)N[C@@H](CCC(=O)O)C(=O)N[C@@H](Cc1c[nH]c2ccccc12)C(=O)N[C@@H](CC(C)C)C(=O)N[C@@H](CCC(=O)O)C(=O)N[C@@H](CO)C(=O)N[C@@H](C)C(N)=O [Compound 13]	–	–	150	–	–	0.057
CC[C@H](C)[C@H](NC(=O)[C@H](CO)NC(=O)[C@H](Cc1ccc(O)cc1)NC(=O)[C@H](CC(=O)O)NC(=O)[C@H](CO)NC(=O)[C@@H](NC(=O)[C@H](Cc1ccccc1)NC(=O)[C@@H](NC(=O)CNC(=O)[C@H](CCC(=O)O)NC(=O)C(C)(C)NC(=O)[C@@H](N)Cc1ccc(O)cc1)[C@@H](C)O)[C@@H](C)O)C(=O)N[C@@H](C)C(=O)N[C@@H](CC(C)C)C(=O)N[C@@H](CC(=O)O)C(=O)N[C@@H](CCCCN)C(=O)N[C@@H](CCCCNC(=O)COCCOCCNC(=O)COCCOCCNC(=O)CC[C@H](NC(=O)CCCCCCCCCCCCCCCCC(=O)O)C(=O)O)C(=O)N[C@@H](C)C(=O)N[C@@H](CCC(N)=O)C(=O)N[C@@H](CCCNC(=N)N)C(=O)N[C@@H](C)C(=O)N[C@@H](Cc1ccccc1)C(=O)N[C@H](C(=O)N[C@@H](CC(N)=O)C(=O)N[C@@H](Cc1c[nH]c2ccccc12)C(=O)N[C@@H](CC(C)C)C(=O)N[C@H](C(=O)N[C@@H](C)C(=O)NC(C)(C)C(=O)N[C@@H](CCCCN)C(=O)N1CCC[C@H]1C(=O)N[C@@H](CO)C(=O)N[C@@H](CO)C(=O)NCC(=O)N[C@@H](C)C(=O)N1CCC[C@H]1C(=O)N1CCC[C@H]1C(=O)N1CCC[C@H]1C(=O)N[C@@H](CO)C(N)=O)C(C)C)C(C)C [Compound 14]	6.4	–	6	0.008	–	0.008
CC[C@H](C)[C@H](NC(=O)[C@H](Cc1ccccc1)NC(=O)[C@H](CCC(=O)O)NC(=O)[C@H](CCCCN)NC(=O)[C@H](C)NC(=O)[C@H](C)NC(=O)[C@H](CCCCNC(=O)COCCOCCNC(=O)COCCOCCNC(=O)CC[C@H](NC(=O)CCCCCCCCCCCCCCCCC(=O)O)C(=O)O)NC(=O)[C@H](CCC(=O)O)NC(=O)[C@H](CC(=O)O)NC(=O)[C@H](CC(C)C)NC(=O)[C@H](Cc1ccc(O)cc1)NC(=O)[C@@H](NC(=O)[C@H](CO)NC(=O)[C@H](Cc1ccc(O)cc1)NC(=O)[C@H](CC(=O)O)NC(=O)[C@H](CO)NC(=O)[C@@H](NC(=O)[C@H](Cc1ccccc1)NC(=O)[C@@H](NC(=O)CNC(=O)[C@H](CCC(=O)O)NC(=O)C(C)(C)NC(=O)[C@@H](N)Cc1ccc(O)cc1)[C@@H](C)O)[C@@H](C)O)[C@@H](C)CC)C(=O)N[C@@H](CCC(=O)O)C(=O)N[C@@H](Cc1c[nH]c2ccccc12)C(=O)N[C@@H](CC(C)C)C(=O)N[C@@H](CCC(=O)O)C(=O)N[C@@H](CO)C(=O)N[C@@H](C)C(N)=O [Compound 14]	–	147	–	–	0.056	–
CC[C@H](C)[C@H](NC(=O)[C@H](CO)NC(=O)[C@H](Cc1ccc(O)cc1)NC(=O)[C@H](CC(=O)O)NC(=O)[C@H](CO)NC(=O)[C@@H](NC(=O)[C@H](Cc1ccccc1)NC(=O)[C@@H](NC(=O)CNC(=O)[C@H](CCC(=O)O)NC(=O)C(C)(C)NC(=O)[C@@H](N)Cc1ccc(O)cc1)[C@@H](C)O)[C@@H](C)O)C(=O)N[C@@H](C)C(=O)N[C@@H](CC(C)C)C(=O)N[C@@H](CC(=O)O)C(=O)N[C@@H](CCCCN)C(=O)N[C@@H](CCCCNC(=O)COCCOCCNC(=O)COCCOCCNC(=O)CC[C@H](NC(=O)CCCCCCCCCCCCCCCCC(=O)O)C(=O)O)C(=O)N[C@@H](C)C(=O)N[C@@H](CCC(N)=O)C(=O)N[C@@H](CCCNC(=N)N)C(=O)N[C@@H](C)C(=O)N[C@@H](Cc1ccccc1)C(=O)N[C@H](C(=O)N[C@@H](CC(N)=O)C(=O)N[C@@H](Cc1c[nH]c2ccccc12)C(=O)N[C@@H](CC(C)C)C(=O)N[C@H](C(=O)N[C@@H](C)C(=O)NC(C)(C)C(=O)N[C@@H](CCCCN)C(=O)N1CCC[C@H]1C(=O)N[C@@H](CO)C(=O)N[C@@H](CO)C(=O)NCC(=O)N[C@@H](C)C(=O)N1CCC[C@H]1C(=O)N1CCC[C@H]1C(=O)N1CCC[C@H]1C(=O)N[C@@H](CO)C(N)=O)C(C)C)C(C)C [Compound 15]	–	6	–	–	0.008	–
